Source: ChEMBL document CHEMBL6096653, “α-GalCer sp2-iminoglycolipid analogs as CD1d-dependent iNKT modulators: Evaluation of their immunotherapeutic potential in murine models of asthma and autoimmune hepatitis” (Eur J Med Chem, 2025)
Active and inactive are the calls of the source. The rule behind the calls is not given here.

Assays:
[1] = tested on: Splenocyte; test: Immunostimulatory activity in Cd1d knockout BALB/c mouse Splenocyte assessed as effect on of IL-4 level at 10 to 25 uM incubated for 48 hrs by ELISA analysis; format: functional, cell-based; details: dose 10-25 µM
[2] = tested on: Mus musculus; test: Anti-inflammatory activity in ConA-induced autoimmune hepatitis C57BL/6 mouse model assessed as reduction in IL-6 level in serum at 20 microg/g, ip pretreated with ConA for 18 hrs followed by compound addition and measured after 18 hrs; format: functional, organism-based; details: dose 20.0 µg/g
[3] = tested on: Mus musculus; test: Anti-asthmatic activity in alpha-Galcer-induced female BALB/c mouse model assessed as reduction in IL-6 mRNA level in lung at 20 microg/g ip measured after 24 hrs by RT-PCR analysis; format: functional, organism-based; details: dose 20.0 µg/g
[4] = tested on: Mus musculus; test: Anti-asthmatic activity in alpha-Galcer-induced female BALB/c mouse model assessed as inhibition of airway hyperreactivity at 20 microg/g ip measured after 24 hrs; format: functional, organism-based; details: dose 20.0 µg/g
[5] = tested on: Mus musculus; test: Immunostimulatory activity in Th1-biased (OT-1) C57BL/6 mouse model transplanted with mouse Splenocyte assessed as increase in OVA-specific CD8+ T cells proliferation at 1 to 400 ug, ip pretreated with compound and ovalbumin for 2 hrs and measured after 2 days by flow cytometry analysis; format: functional, organism-based; details: dose 1-400 µg, time 50.0 hrs
[6] = tested on: iNKT hybridoma DN3A4-1.2 cell; test: Immunostimulatory activity in mouse iNKT hybridoma DN3A4-1.2 cell assessed as induction of IL-2 secretion at 10 to 25 uM incubated for 48 hrs in presence of alpha-GalCer by ELISA analysis; format: functional, cell-based; details: dose 10-25 µM
[7] = tested on: Mus musculus; test: Immunostimulatory activity in ip dosed Th1-biased (OT-1) C57BL/6 mouse model transplanted with mouse Splenocyte assessed as increase in OVA-specific CD8+ T cells proliferation pretreated with compound and ovalbumin for 2 hrs and measured after 2 days by flow cytometry analysis; format: functional, organism-based; details: dose 400.0 µg, time 50.0 hrs
[8] = tested on: Mus musculus; test: Anti-asthmatic activity in alpha-Galcer-induced female BALB/c mouse model assessed as reduction in Muc5ac mRNA level in lung at 20 microg/g ip measured after 24 hrs by RT-PCR analysis; format: functional, organism-based; details: dose 20.0 µg/g
[9] = tested on: iNKT hybridoma DN3A4-1.2 cell; test: Immunostimulatory activity in mouse iNKT hybridoma DN3A4-1.2 cell assessed as induction of IL-2 level at 10 to 25 uM incubated for 48 hrs by ELISA analysis; format: functional, cell-based; details: dose 10-25 µM
[10] = tested on: Mus musculus; test: Immunostimulatory activity in ip dosed Th1-biased (OT-1) C57BL/6 mouse model transplanted with mouse Splenocyte assessed as increase in OVA-specific CD8+ T cells proliferation pretreated with compound and ovalbumin for 2 hrs and measured after 3 days by flow cytometry analysis; format: functional, organism-based; details: dose 400.0 µg
[11] = tested on: Splenocyte; test: Immunostimulatory activity in BALB/c mouse Splenocyte assessed as induction of IFNgamma level at 10 to 25 uM incubated for 48 hrs by ELISA analysis; format: functional, cell-based; details: dose 10-25 µM
[12] = Toxicity in C57BL/6J mouse assessed as decrease in AST level in serum at 20 microg/g, ip measured after 18 hrs; format: organism-based; details: in vivo, dose 20 µg/g
[13] = tested on: Mus musculus; test: Anti-asthmatic activity in alpha-Galcer-induced female BALB/c mouse model assessed as reduction in Gob5 mRNA level in lung at 20 microg/g ip measured after 24 hrs by RT-PCR analysis; format: functional, organism-based; details: dose 20.0 µg/g
[14] = tested on: Splenocyte; test: Immunostimulatory activity in BALB/c mouse Splenocyte assessed as induction of IL-4 level at 25 uM incubated for 48 hrs by ELISA analysis; format: functional, cell-based
[15] = tested on: Mus musculus; test: Immunostimulatory activity in Th1-biased (OT-1) C57BL/6 mouse model transplanted with mouse Splenocyte assessed as increase in OVA-specific CD8+ T cells proliferation at 1 to 400 ug, ip pretreated with compound and ovalbumin for 2 hrs and measured after 3 days by flow cytometry analysis; format: functional, organism-based; details: dose 1-400 µg, time 74.0 hrs
[16] = tested on: Splenocyte; test: Immunostimulatory activity in BALB/c mouse Splenocyte assessed as induction of IL-4 level at 10 to 25 uM incubated for 48 hrs by ELISA analysis; format: functional, cell-based; details: dose 10-25 µM
[17] = tested on: Splenocyte; test: Immunostimulatory activity in BALB/c mouse Splenocyte assessed as induction of IFNgamma level at 25 uM incubated for 48 hrs by ELISA analysis; format: functional, cell-based
[18] = tested on: Splenocyte; test: Immunostimulatory activity in Cd1d knockout BALB/c mouse Splenocyte assessed as effect on of IFNgamma level at 10 to 25 uM incubated for 48 hrs by ELISA analysis; format: functional, cell-based; details: dose 10-25 µM
[19] = Toxicity in C57BL/6J mouse assessed as liver damage at 20 microg/g, ip measured after 18 hrs by H and E staining based analysis; format: organism-based; details: in vivo, dose 20 µg/g
[20] = tested on: Mus musculus; test: Anti-inflammatory activity in ConA-induced autoimmune hepatitis C57BL/6 mouse model assessed as reduction in TNF-alpha level in serum at 20 microg/g, ip pretreated with ConA for 18 hrs followed by compound addition and measured after 18 hrs; format: functional, organism-based; details: dose 20.0 µg/g
[21] = tested on: Mus musculus; test: Anti-asthmatic activity in alpha-Galcer-induced female BALB/c mouse model assessed as reduction in TNF-alpha mRNA level in lung at 20 microg/g ip measured after 24 hrs by RT-PCR analysis; format: functional, organism-based; details: dose 20.0 µg/g
[22] = Toxicity in C57BL/6J mouse assessed as decrease in ALT level in serum at 20 microg/g, ip measured after 18 hrs; format: organism-based; details: in vivo, dose 20 µg/g
[23] = tested on: Splenocyte; test: Cytotoxicity against mouse Splenocyte assessed as cell viability at 25 uM by AlamarBlue assay; format: toxicity, cell-based

For `CCCCCCCCCCCCCC[C@@H](O)[C@@H](O)[C@H](CO[C@@H]1[C@H](O)[C@@H](O)[C@@H](O)[C@H]2COC(=O)N21)n1cc(CCCCCCCC)nn1`, the Activity [1] was “inactive”, the Activity [2] was “Active” and the Activity [3] was “Active”. For the same compound, the Activity [4] was “Active”, the Activity [5] was “Active” and the Activity [6] was “Active”. The Activity [7] was “Dose-dependent-effect”, the Activity [8] was “Active” and the Activity [9] was “Active”. For the same compound, the Activity [10] was “Dose-dependent-effect”, the Activity [11] was “Active” and the Activity [12] was “Non-toxic”. The Activity [13] was “Active”, the Activity [14] was “Active” and the Activity [15] was “Active”. For the same compound, the Activity [16] was “Active”, the Activity [17] was “Active” and the Activity [18] was “inactive”. The Activity [19] was “Non-toxic”, the Activity [20] was “Active” and the Activity [21] was “Active”. The Activity [22] was “Non-toxic”.

For `CCCCCCCCCCCCCCCCCCCCCCCCCC(=O)N[C@@H](CO[C@@H]1[C@H](O)[C@@H](O)[C@@H](O)[C@H]2COC(=O)N21)[C@H](O)[C@H](O)CCCCCCCCCCCCCC`, the Activity [6] was “Active”, the Activity [9] was “inactive” and the Activity [14] was “inactive”. The Activity [17] was “inactive”.

In the case of `CCCCCCCCCCCCCC[C@@H](O)[C@@H](O)[C@H](CO[C@@H]1[C@H](O)[C@@H](O)[C@@H](O)[C@H]2COC(=O)N21)n1cc(CCCCCCCCCCCC)nn1`, the Activity [1] is reported as “inactive”, the Activity [14] is reported as “Active” and the Activity [16] is reported as “Active”. For the same compound, the Activity [17] was “inactive” and the Activity [18] was “inactive”.

With `CCCCCCCCCCCCCCCCCCCCCCCCCC(=O)N[C@@H](CO[C@@H]1[C@H](O)[C@@H](O)[C@H](O)[C@H]2COC(=O)N21)[C@H](O)[C@H](O)CCCCCCCCCCCCCC` the Activity [6] was “Active”, the Activity [9] was “inactive” and the Activity [14] was “inactive”. The Activity [17] was “inactive”.

In the case of `CCCCCCCCCCCCCC[C@@H](O)[C@@H](O)[C@H](CO[C@@H]1[C@H](O)[C@@H](O)[C@@H](O)[C@H]2COC(=O)N21)n1cc(CCCC)nn1`, the Activity [17] is reported as “inactive”.

With `CCCCCCCCCCCCCC[C@@H](O)[C@@H](O)[C@H](CO[C@@H]1[C@H](O)[C@@H](O)[C@@H](O)[C@H]2COC(=O)N21)n1cc(CCCCCC)nn1` the Activity [1] was “inactive”, the Activity [14] was “Active” and the Activity [16] was “Active”. For the same compound, the Activity [17] was “inactive”, the Activity [18] was “inactive” and the Activity [23] was “Toxic”.
